{"source": "patent US9657081B2", "about": "“Inhibiting peptides derived from triggering receptor expressed on myeloid cells-1 (TREM-1) TREM-like transcript 1 (TLT-1) for treatment of cardiovascular diseases” (INSERM (Institut National de la Sante et de la Recherche …, priority 2013, dated 2017)", "key": {"[1]": {"system": "TREM-1", "test": "Rat model of myocardial permanent ischemia (myocardial infarction), physiologic parameters and micro-TEP imaging", "assay_type": "in vivo", "description": "Adult male Wistar rats (360-380 g) were used. All rats were anaesthetized with ketamine (100 mg/kg, intramuscularly) and mechanically ventilated. After a left thoracotomy, the left coronary artery was identified and ligated with a 6-0 prolene surgical suture. LAD occlusion was confirmed by a change in myocardial color from red to white in the ischemia area (Left ventricle). The chest was closed and the skin was sutured with 6-0 silk. The animals returned to their cage where they were supervised until their complete recovery. The postoperative mortality rate of all rats was 20%.\nAfter surgical LAD occlusion, importance of ischemic area was evaluated by micro-TEP imaging. Animals were then randomized to receive peptide (5 mg/kg) every 24 h for 5 days or placebo (vehicle).\nA further evaluation was performed at 6 weeks by micro-TEP imaging and conductance catheter (Millar) in order to study the treatment effect on myocardial remodeling and myocardial function.\nIn all animals, approximately 70 MBq of ^18F-FDG (in a 0.3-0.5 ml volume) was injected intravenously and under a short anaesthesia (1.5-2.5% of isoflurane inhalation) 60 min prior to initiating PET recording. Recording was acquired in list mode under continuous anaesthesia by isoflurane, using a dedicated small animal PET system (Inveon, Siemens, Knoxville, Tenn., USA). The animals were positioned in the prone position and placed on a heating pad to maintain a body temperature within the normal range. The animals were connected to a standard ECG monitor by three electrodes placed on the inner surfaces of limb extremities. Recording times were 20 min for 18F emission and 6 min for 57Co transmission. The coincidence timing window was set to 3.4 ns and the energy window between 350 and 650 keV. Images were reconstructed in 16 cardiac intervals, providing a temporal resolution of 11-15 ms for common heart rate values. Under these conditions, the axial spatial resolution was less than 1.5 mm. In addition, on LV rat phantoms obtained by a stereolithography process, a precise determination of the actual cavity volumes was provided by FDG PET images above the level of 100 μl corresponding to the lower limit for the LV endsystolic volume in adult.\nWe finally investigated whether the modulation of the inflammatory response conferred by TREM-1- and TLT-1-derived peptides was able to translate into cardiac function improvement after a severe MI. We performed a permanent coronary artery ligation in rats before randomisation and imaging as described above."}, "[2]": {"system": "TREM-1", "test": "Monkey model of endotoxin (LPS) infusion: blood pressure monitoring", "assay_type": "in vivo, cynomolgus monkey (Macaca fascicularis)", "description": "Male cynomolgus monkeys (Macaca fascicularis) (2.8 to 3.5 kg, 24 months old, Le Tamarinier, La Route Royale, Tamarin, Mauritius) were used. Animals were fasted the day before LPS challenge but with full access to water. CIToxLAB France Ethical Committee (CEC) reviewed and approved all study plans (Nr CEC: 02221).\nVital signs and weight were recorded the day before LPS challenge. The next morning, baseline clinical laboratory samples were collected, and a baseline set of vital signs was recorded. The drug was administered into the cephalic or saphenous vein via a Teflon catheter. Contralateral vein was used for LPS administration.\nMonkeys were randomized to receive LR12 or placebo (n=6 per group). An additional group of 4 was constituted to only receive vehicle (NaCl 0.9%) infusion and served as the control group.\nAt time point 0, a 15 mins intravenous infusion of LR12 or placebo solution was begun, at the rate of 12 mL/h (5 mg/kg, 10 mins, 2 mL), delivered by a calibrated syringe pump (Harvard Apparatus). A continuous infusion was then administered for further 8 hours at the rate of 2 mL/h (1 mg/kg/h, 8 hours, 16 mL). Just before treatment infusion, an intravenous bolus of LPS (10 μg/kg) was administered over the course of a 10 mins period into the contralateral catheter. Animals remained awake in an upright position in a restraint chairs and continued to fast from food for the whole study duration.\nPulse rate, and blood pressure were monitored every 15 mins for 1 hour, then every 30 mins for 7 hours."}}, "data": [{"sequence": "LQEEDAGEYGCM (listed as Homo sapiens) [TLT1-LR12]", "values": [{"measurement": "Body weight", "setting": "[1]; Baseline", "value": "313 ± 51", "unit": "g"}, {"measurement": "EDV", "setting": "[1]; Baseline", "value": "417 ± 92", "unit": "µL"}, {"measurement": "EF", "setting": "[1]; Baseline", "value": "48 ± 9", "unit": "%"}, {"measurement": "ESV", "setting": "[1]; Baseline", "value": "215 ± 62", "unit": "µL"}, {"measurement": "Heart rate", "setting": "[1]; Baseline", "value": "400 ± 26", "unit": "bpm"}, {"measurement": "MI Areas", "setting": "[1]; Baseline", "value": "22 ± 11 % of LV"}, {"measurement": "MT Areas", "setting": "[1]; Baseline", "value": "54 ± 30", "unit": "mm^2"}, {"measurement": "Systolic blood pressure", "setting": "[1]; Baseline", "value": "136 ± 17", "unit": "mmHg"}, {"measurement": "Body weight", "setting": "[1]; Six weeks", "value": "426 ± 49", "unit": "g"}, {"measurement": "Body weight, difference with baseline", "setting": "[1]; Six weeks", "value": "113 ± 51", "unit": "g"}, {"measurement": "EDV", "setting": "[1]; Six weeks", "value": "615 ± 161", "unit": "µL"}, {"measurement": "EDV, difference with baseline", "setting": "[1]; Six weeks", "value": "198 ± 95", "unit": "µL"}, {"measurement": "EF", "setting": "[1]; Six weeks", "value": "50 ± 8", "unit": "%"}, {"measurement": "EF, difference with baseline", "setting": "[1]; Six weeks", "value": "2 ± 7", "unit": "%"}, {"measurement": "ESV", "setting": "[1]; Six weeks", "value": "313 ± 128", "unit": "µL"}, {"measurement": "ESV, difference with baseline", "setting": "[1]; Six weeks", "value": "99 ± 80", "unit": "µL"}, {"measurement": "Heart rate", "setting": "[1]; Six weeks", "value": "393 ± 23", "unit": "bpm"}, {"measurement": "Heart rate, difference with baseline", "setting": "[1]; Six weeks", "value": "−8 ± 22", "unit": "bpm"}, {"measurement": "MI Areas (% of LV), difference with baseline", "setting": "[1]; Six weeks", "value": "−6.0 ± 8.1 % of LV"}, {"measurement": "MI Areas (mm^2), difference with baseline", "setting": "[1]; Six weeks", "value": "−5 ± 23", "unit": "mm^2"}, {"measurement": "Systolic blood pressure", "setting": "[1]; Six weeks", "value": "136 ± 17", "unit": "mmHg"}, {"measurement": "Systolic blood pressure, difference with baseline", "setting": "[1]; Six weeks", "value": "−12 ± 26", "unit": "mmHg"}, {"measurement": "arterial pressure / hypotension after LPS challenge", "setting": "[2]; LPS 10 μg/kg", "value": "never went hypotensive"}, {"measurement": "Heart rate after LPS injection", "setting": "[2]; LPS 10 μg/kg, 5 mg/kg then 1 mg/kg/h for 8 hours i.v.", "value": "no effects"}, {"measurement": "body temperature increase after LPS, difference between placebo (LR12scr) and LR12-treated animals", "setting": "[2]; between H1 and H2", "value": "not significant"}]}]}
